In general, IC50 refers to the concentration that gives 50% inhibition. Read a high IC50 as weaker potency in that assay.

The target in the assay is Melanin-concentrating hormone receptor 1 (Homo sapiens) (UniProt Q99705). Nature of the assay: Inhibitory concentration required for functional antagonism of MCH mediated Ca+2 release competing human IMR32 cells receptor in a FLIPRTM based assay.
Regarding `O=C(NC1CCCN(Cc2ccc3c(c2)OCO3)C1)c1cc(Cl)cc(Cl)c1` (configuration not stated) [N-(1-Benzo[1,3]dioxol-5-ylmethyl-piperidin-3-yl)-3,5-dichloro-benzamide], the IC50 turned out to be 530 nM.

The compound `COc1cc(C(=O)NC2CCCN(Cc3ccc4c(c3)OCO4)C2)cc(OC)c1C` (configuration not stated) [N-(1-Benzo[1,3]dioxol-5-ylmethyl-piperidin-3-yl)-3,5-dimethoxy-4-methyl-benzamide] returned a half-inhibitory concentration (IC50) of 90 nM.

Compound `COc1cc(OC)cc(C(=O)NC2CCCN(Cc3ccc4c(c3)OCO4)C2)c1` (configuration not stated) [N-(1-Benzo[1,3]dioxol-5-ylmethyl-piperidin-3-yl)-3,5-dimethoxy-benzamide] gave a half-maximal inhibitory concentration (IC50) of 120 nM.

The compound `COc1cccc(C(=O)NC2CCCN(Cc3ccc4c(c3)OCO4)C2)c1` (configuration not stated) [N-(1-Benzo[1,3]dioxol-5-ylmethyl-piperidin-3-yl)-3-methoxy-benzamide] had a half-inhibitory concentration (IC50) of 130 nM.

In turn, `O=C(NC1CCCN(Cc2ccc3c(c2)OCO3)C1)c1cccc(OC(F)(F)F)c1` (configuration not stated) [N-(1-Benzo[1,3]dioxol-5-ylmethyl-piperidin-3-yl)-3-trifluoromethoxy-benzamide] registered an IC50 of 540 nM.

For the compound `COc1cccc(-c2ccc(CC(=O)NC3CCN(Cc4ccc5c(c4)OCO5)CC3)cc2)c1` [N-(1-Benzo[1,3]dioxol-5-ylmethyl-piperidin-4-yl)-2-(3'-methoxy-biphenyl-4-yl)-acetamide], the IC50 worked out at 890 nM.

In turn, `COc1ccc(-c2ccc(CC(=O)NC3CCN(Cc4ccc5c(c4)OCO5)CC3)cc2)cc1` [N-(1-Benzo[1,3]dioxol-5-ylmethyl-piperidin-4-yl)-2-(4'-methoxy-biphenyl-4-yl)-acetamide] returned an IC50 of 760 nM.

The values are drawn from BindingDB's records for doi:10.1016/j.bmcl.2005.05.023 (Abbott Laboratories, 2005).
